The text below walks through data of patent publication US7615361B2, “Toxicity screening methods” (Ceetox, Inc., priority 2006, dated 2009).

Data set [1] can be described thus: Cell number (propidium iodide). In kind it is cell-based. As to conditions: human, read-out: Cell Number TC50; for CC50 at 72 h: SK-MEL28 cells, SK-MEL28, 72 HR, run #2. The procedure:
Cell Proliferation: Cell proliferation in each well was measured with propidium iodide (PI). This specific nucleic acid binding dye fluoresces when intercalated within the nucleic acids. The 15 nm shift enhances PI fluorescence approximately 20 times while the excitation maxima are shifted 30-40 nm. During method development experiments, it was determined that Triton-X-100 was the best solution to permeabilize the H4IIE cells thereby allowing the PI access to intracellular RNA and DNA. Fluorescence was measured using a Packard Fusion plate reader or equivalent reader at 540 nm excitation and 610 nm emission.
Cell Proliferation: After incubation, the test compound was removed and Triton X-100 solution containing propidium iodide is added. The plate was incubated and read on a fluorescent plate reader. Data was collected as relative fluorescent units (RFU). The blank was subtracted from the final well RFU. It represents the average of the first and last columns which contain no cells on that particular plate. The controls are untreated cells allowed to grow on the same plate. The compounds are represented by several separate RFU data points for each of the tested concentrations. The percent change relative to controls was calculated by dividing the average RFU by the control cell RFU and multiplying by 100.
Dosing solutions were prepared in complete culture medium.

A short description of data set [2]: MemTox membrane leakage (AK / α-GST). In kind it is cell-based. As to conditions: rat, NRK cells, read-out: GST TC50. Here is the method:
Membrane Leakage (α-Glutathione S-transferase and/or Adenylate Kinase): The presence of Adenylate Kinase (AK) or α-Glutathione S-transferase (α-GST), both enzyme leakage markers, was measured in the culture medium using an activity assay for Adenylate Kinase and/or an ELISA assay for α-GST. At the end of the exposure period, the medium covering the cells in each well was removed and placed into new 96-well plates with appropriate labeling. […] Luminescence (AK) values were measured with a Packard Fusion or equivalent plate reader, and absorbance (α-GST) values were measured with a Packard SpectraCount™ or equivalent reader at 450 nm and reference absorbance at 650 nm.
Membrane Leakage (α-Glutathione S-transferase and/or Adenylate Kinase): Leakage of Adenylate Kinase or α-GST from the cell into the culture medium was determined by collecting the culture medium at the end of the exposure period. Thus, the values measured represent total enzyme leakage lost over the exposure period. The control for 100% dead or maximum enzyme release was based on cells treated with 1 mM digitonin at the time of dosing. Percent dead cells relative to digitonin treated cells was determined and then subtracted from 100% to yield the percent live cells.
The third experiment was done to evaluate the specificity and selectivity of the test compound in another non-tumor cell that was derived from normal rat kidney tissue. In this experiment the test compound has no effect on cell number of acute cell death up to the 500 dilution after 6 and 24 hr of exposure (FIG. 76C and 77C). Significant effects were observed on mitochondrial markers at dilutions that dropped pH to 3.7. The bar graph in FIG. 82 summarizes these effects. […] In contrast the rat tumor cell line was sensitive to the test compound and cell death occurred at the 500 dilution and could not be attributed to low pH.

A short description of the next data set: MTT reduction. As to conditions: human; for CC50 at 24 h: MTT TC50, SK-MEL28, 24 HR. The procedure: Tetrazolium Dye Reduction: 3-[4,5-dimethylthiazol-2-yl]
The test compound consisted of two parts mixed in a constant ratio of 5:1. The final test mixture consisted of Test mix 1 and Test mix 2, which were received as frozen solutions. The test mixture was tested in a ratio of 5:1 COMP A in five different cell types which included the following: SK-MEL28, human hepatocytes, HUVEC, C32, and NHEM cells. Cells were seeded into 96-well plates and cultured in medium containing 10% bovine serum. […]
Experimental Protocol: The test compounds were shipped on dry ice for testing. The compounds were stored frozen at −80° C. until needed. Dosing solutions were prepared in complete culture medium. SK-MEL28, human hepatocytes, HUVEC, C32, and NHEM cells were used as the test systems. Cells were seeded into 96-well plates and allowed to equilibrate for approximately 48 hr. Following the equilibration period the cells were exposed to the test compound mix at concentrations of COMP A (μg/mL)=(250:50), (125:25), (25:12.5), (12.5:2.5), (2.5:1.25), (1.25:0.25), and (0.25:0.05). Solubility was determined by Nephalometry techniques immediately after dosing and prior to harvesting the cells at 24 hr. Following the exposure period, the cells or their supernatant (culture medium) were analyzed for changes in cell proliferation, membrane leakage, mitochondrial function, oxidative stress, and apoptosis. The resultant exposure concentration response curves were graphed and analyzed for determining the concentration that produced a half maximal response or TC50.
For orientation: Tetrazolium dyes change colour on reduction, which living cells bring about.

Data set [3] deals with T1, P-glycoprotein (PgP) (Homo sapiens, UniProt P08183). Nature of the data set: P-glycoprotein (PgP) binding: MTT with and without cyclosporin A, human hepatocytes. The class given is cell-based. Set-up: SK-MEL28, human hepatocytes, HUVEC, C32, and NHEM cells were used as the test systems; endogenous in cells. As to conditions: for % Control (Compound + CSA) / % Control (Compound): human hepatocytes 24 HR, MTT; for % Control (Compound + CSA): with cyclosporin A; for % Control (Compound): without CSA; for % Difference: human hepatocytes, 24 HR. Here is the method: P-glycoprotein (PgP) transport proteins are expressed in the bile canalicular membrane of normal liver. However, in neoplastic cells it is not uncommon to have expression of this transporter system in the plasma membrane. The H4IIE cells have a very active efflux pump activity in the plasma membrane. As a result, compounds that are substrates for this transporter may not accumulate inside the cell. The existence of these transporters was evaluated with the Calcein-AM assay and with known substrates of PgP. […] Therefore, compounds that show negative toxicity should be evaluated as potential substrates of PgP and compared to data shown in the PgP table of this example.
The cell supernatant or the cells themselves were harvested for biochemical analysis. General cytotoxicity was evaluated by monitoring membrane integrity, mitochondrial function, cell proliferation, oxidative stress, and apoptosis. In addition to monitoring biochemical changes essential for cell health, interaction with P-glycoprotein (PgP) and solubility were also assessed. The means of each exposure group (n=3-7) were calculated for each assay performed. Intra assay variation well to well was typically less than 10% with plate to plate variation typically less than 20%.

Data set [4] deals with T1, P-glycoprotein (PgP). Briefly: P-glycoprotein (PgP) binding: MTT with and without cyclosporin A, HUVEC. Set-up: SK-MEL28, human hepatocytes, HUVEC, C32, and NHEM cells were used as the test systems; endogenous in cells. As to conditions: HUVEC 24 HR; for % Control (Compound + CSA): with cyclosporin A; for % Control (Compound): without CSA. In kind it is cell-based.

T1 sequence (P08183 whole entry): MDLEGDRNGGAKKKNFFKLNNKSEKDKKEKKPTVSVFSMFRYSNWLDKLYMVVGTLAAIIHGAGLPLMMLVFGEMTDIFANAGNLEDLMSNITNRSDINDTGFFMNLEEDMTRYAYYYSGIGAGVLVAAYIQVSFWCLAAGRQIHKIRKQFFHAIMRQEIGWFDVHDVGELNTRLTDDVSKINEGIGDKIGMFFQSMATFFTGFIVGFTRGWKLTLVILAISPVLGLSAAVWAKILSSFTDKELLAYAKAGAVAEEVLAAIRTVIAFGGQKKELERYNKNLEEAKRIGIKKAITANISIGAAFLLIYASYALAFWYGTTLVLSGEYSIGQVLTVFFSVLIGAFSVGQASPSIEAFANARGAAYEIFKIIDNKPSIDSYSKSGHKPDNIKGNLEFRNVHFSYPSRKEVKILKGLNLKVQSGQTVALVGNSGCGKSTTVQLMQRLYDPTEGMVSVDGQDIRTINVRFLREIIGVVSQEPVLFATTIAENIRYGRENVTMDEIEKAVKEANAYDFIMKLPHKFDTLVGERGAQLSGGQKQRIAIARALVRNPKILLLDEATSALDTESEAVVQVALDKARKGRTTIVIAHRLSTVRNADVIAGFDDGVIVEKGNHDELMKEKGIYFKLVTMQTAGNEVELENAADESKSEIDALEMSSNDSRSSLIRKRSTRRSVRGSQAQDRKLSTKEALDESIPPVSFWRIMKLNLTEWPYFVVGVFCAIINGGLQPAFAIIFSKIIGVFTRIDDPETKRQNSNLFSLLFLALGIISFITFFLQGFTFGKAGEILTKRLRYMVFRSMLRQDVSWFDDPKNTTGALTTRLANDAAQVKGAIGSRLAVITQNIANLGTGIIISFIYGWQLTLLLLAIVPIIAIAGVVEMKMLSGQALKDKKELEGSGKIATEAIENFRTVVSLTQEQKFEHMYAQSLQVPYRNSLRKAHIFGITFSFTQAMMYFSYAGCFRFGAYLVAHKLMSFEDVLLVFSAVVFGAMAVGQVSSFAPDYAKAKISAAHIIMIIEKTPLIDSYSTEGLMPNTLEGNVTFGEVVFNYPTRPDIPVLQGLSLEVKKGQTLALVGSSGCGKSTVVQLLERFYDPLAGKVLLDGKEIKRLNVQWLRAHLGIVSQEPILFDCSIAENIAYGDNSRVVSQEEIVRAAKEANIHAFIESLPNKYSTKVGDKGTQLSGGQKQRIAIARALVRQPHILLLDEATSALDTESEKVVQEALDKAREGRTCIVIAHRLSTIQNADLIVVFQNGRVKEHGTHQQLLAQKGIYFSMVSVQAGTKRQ

For `CC[C@@]1(O)C(=O)OCc2c1cc1n(c2=O)Cc2cc3ccccc3nc2-1` [CAMPTOTHECIN, Camptothecin], the CC50 at 24 h in data set [1] (HUVEC) was 85 µM; in data set [2], 100 µM; in “MTT reduction” (SK-MEL28 cells), 241 µM; in the data set “MTT reduction” (SK-MEL28 cells, run #2) it was 249 µM. In addition, the CC50 at 72 h in data set [1] was found to be 0.1 µM; in “MTT reduction” (SK-MEL28 cells, MTT TC50, SK-MEL28, 72 HR, run #2) it was 0.1 µM. For the same compound, in data set [2], the CC50 at 6 h was determined as 300 µM. Besides, the “% Control (Compound + CSA)” value is 65.8% on P-glycoprotein (PgP) [3] and 18.0% at P-glycoprotein (PgP) [4]. Moreover, the “% Control (Compound)” value on P-glycoprotein (PgP) [3] came to 88.5%; on P-glycoprotein (PgP) [4], 29.4%. Besides, the “% Difference” value at P-glycoprotein (PgP) [3] worked out at 25.7%.

On to `C=C(C)[C@H]1Cc2c(ccc3c2O[C@@H]2COc4cc(OC)c(OC)cc4[C@@H]2C3=O)O1` [ROTENONE, Rotenone], for which the CC50 at 72 h in data set [1] worked out at 1 µM. In data set [2], the CC50 at 6 h was 10 µM and the CC50 at 24 h turned out to be 10 µM. The compound also registered a CC50 at 72 h in the data set “MTT reduction” of 0.2 µM. Moreover, at P-glycoprotein (PgP) [3], the “% Control (Compound + CSA)” value stood at 60.9%, the “% Control (Compound)” value is reported as 97.1% and the “% Difference” value amounted to 37.2%. Also, at P-glycoprotein (PgP) [4], the “% Control (Compound + CSA)” value turned out to be 77.8% and the “% Control (Compound)” value is recorded as 75.4%.
